Reference: ChEMBL document CHEMBL5523703, “Modulators for palmitoylation of proteins and small molecules” (Eur J Med Chem, 2024)
Counter-ions that a name gives are not always drawn. Each block holds one compound with its values, some of them ahead of it.

Tests used:
[1] = Half life in mouse by LC-MS/MS analysis; assay type: ADME; conditions: in vivo, route po
CCF-STTG1 = assay: Antiproliferative activity against human CCF-STTG1 cells assessed as reduction in cell growth; assay type: functional, cell-based
[2] = Binding affinity to SPT (unknown origin) assessed as inhibition constant; parameters: species or system Homo sapiens
[3] = biological target: Non-structural protein 4b (Hepacivirus hominis, UniProt F5B4I0); assay: Inhibition of Hepatitis C virus genotype 1a NS4B
[4] = Inhibition of N-terminal 6His-tagged human TEAD1 YAP-binding domain (219 to 435 residues) expressed in Escherichia coli BL21 (DE3)
Plasmodium falciparum = assay: […] activity against Plasmodium falciparum assessed as reduction in microbial growth; assay type: functional
[5] = biological target: T1, Carnitine O-palmitoyltransferase 1, liver isoform (Homo sapiens, UniProt P50416); assay: Inhibition of CPT1A (unknown origin)
T1 sequence (P50416 whole entry): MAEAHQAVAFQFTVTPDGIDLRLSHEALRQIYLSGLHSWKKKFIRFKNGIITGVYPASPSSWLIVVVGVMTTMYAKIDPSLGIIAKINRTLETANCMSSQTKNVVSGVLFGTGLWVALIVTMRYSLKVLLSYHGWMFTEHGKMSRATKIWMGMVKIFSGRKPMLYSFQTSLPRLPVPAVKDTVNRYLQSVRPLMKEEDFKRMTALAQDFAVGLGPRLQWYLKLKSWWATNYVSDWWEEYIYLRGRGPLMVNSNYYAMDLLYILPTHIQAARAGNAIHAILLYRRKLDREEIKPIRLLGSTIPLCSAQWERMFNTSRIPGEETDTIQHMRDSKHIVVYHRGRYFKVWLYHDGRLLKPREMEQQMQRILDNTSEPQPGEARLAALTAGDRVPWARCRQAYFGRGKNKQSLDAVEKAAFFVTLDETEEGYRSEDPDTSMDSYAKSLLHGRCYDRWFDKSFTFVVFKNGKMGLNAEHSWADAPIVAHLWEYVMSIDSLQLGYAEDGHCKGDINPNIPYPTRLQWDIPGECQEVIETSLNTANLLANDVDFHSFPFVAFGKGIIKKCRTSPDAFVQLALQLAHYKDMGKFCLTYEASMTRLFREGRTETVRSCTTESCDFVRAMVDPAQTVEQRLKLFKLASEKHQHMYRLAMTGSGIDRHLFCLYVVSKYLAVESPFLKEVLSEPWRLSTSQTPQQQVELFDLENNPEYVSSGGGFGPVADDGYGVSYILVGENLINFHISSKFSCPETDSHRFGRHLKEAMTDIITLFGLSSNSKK

[6] = biological target: T2, Carnitine O-palmitoyltransferase 1, muscle isoform (Homo sapiens, UniProt Q92523); assay: Inhibition of CPT1B (unknown origin)
T2 sequence (Q92523 whole entry): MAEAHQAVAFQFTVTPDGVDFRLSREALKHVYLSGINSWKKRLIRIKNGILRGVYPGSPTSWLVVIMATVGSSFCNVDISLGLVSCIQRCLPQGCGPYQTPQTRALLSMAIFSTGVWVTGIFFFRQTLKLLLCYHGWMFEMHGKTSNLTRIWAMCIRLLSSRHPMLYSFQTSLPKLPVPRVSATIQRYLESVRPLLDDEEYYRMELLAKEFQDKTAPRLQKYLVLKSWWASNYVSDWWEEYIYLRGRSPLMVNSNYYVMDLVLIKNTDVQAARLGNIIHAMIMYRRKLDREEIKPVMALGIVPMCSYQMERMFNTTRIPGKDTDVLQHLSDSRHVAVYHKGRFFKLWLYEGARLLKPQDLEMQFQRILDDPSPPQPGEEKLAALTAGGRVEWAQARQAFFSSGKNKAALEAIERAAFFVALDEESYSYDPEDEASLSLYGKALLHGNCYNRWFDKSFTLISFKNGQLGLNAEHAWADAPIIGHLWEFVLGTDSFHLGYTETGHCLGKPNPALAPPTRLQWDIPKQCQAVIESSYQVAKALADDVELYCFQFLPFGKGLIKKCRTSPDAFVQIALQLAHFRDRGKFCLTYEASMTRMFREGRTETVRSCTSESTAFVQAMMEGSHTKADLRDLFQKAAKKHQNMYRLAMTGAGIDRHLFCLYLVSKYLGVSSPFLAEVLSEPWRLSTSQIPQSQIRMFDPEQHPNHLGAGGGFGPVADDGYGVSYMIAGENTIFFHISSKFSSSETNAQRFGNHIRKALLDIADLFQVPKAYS

[7] = biological target: T3, Carnitine O-palmitoyltransferase 1, liver isoform (Rattus norvegicus, UniProt P32198); assay: Inhibition of rat hepatocytes CPT1A; assay type: cell-based, Hepatocyte
T3 sequence (P32198 whole entry): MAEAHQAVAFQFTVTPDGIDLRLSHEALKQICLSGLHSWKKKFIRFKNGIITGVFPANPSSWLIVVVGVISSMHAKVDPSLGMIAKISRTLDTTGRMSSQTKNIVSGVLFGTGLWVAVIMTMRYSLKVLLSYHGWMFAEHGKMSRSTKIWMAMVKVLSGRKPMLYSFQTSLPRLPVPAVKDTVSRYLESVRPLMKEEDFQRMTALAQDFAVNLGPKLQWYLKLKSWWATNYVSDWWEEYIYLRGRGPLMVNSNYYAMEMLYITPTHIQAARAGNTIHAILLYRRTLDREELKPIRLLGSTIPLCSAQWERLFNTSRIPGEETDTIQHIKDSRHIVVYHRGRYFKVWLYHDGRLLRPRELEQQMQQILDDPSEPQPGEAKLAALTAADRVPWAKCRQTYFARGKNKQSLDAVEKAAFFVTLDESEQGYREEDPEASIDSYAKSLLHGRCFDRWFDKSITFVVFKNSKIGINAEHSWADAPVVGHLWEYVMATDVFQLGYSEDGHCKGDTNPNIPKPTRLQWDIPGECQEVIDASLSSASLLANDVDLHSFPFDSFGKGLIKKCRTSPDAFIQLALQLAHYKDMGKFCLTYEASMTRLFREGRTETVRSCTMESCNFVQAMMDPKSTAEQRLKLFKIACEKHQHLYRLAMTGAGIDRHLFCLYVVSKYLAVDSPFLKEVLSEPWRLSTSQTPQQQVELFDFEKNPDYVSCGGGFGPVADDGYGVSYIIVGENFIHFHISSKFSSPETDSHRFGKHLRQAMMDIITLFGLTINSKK

[8] = biological target: T2, Carnitine O-palmitoyltransferase 1, muscle isoform; assay: Inhibition of CPT1B (unknown origin) in KB cells; assay type: cell-based
[9] = biological target: Transcriptional enhancer factor TEF-1 (Homo sapiens, UniProt P28347); assay: Inhibition of N-terminal His-tagged human TEAD1 expressed in Escherichia coli BL21 (DE3) (209 to 424 residues) by affinity chromatography analysis
[10] = biological target: Carnitine O-palmitoyltransferase 2, mitochondrial (Rattus norvegicus, UniProt P18886); assay: Inhibition of rat CPT2
[11] = biological target: Protein-cysteine N-palmitoyltransferase HHAT (Homo sapiens, UniProt Q5VTY9); assay: Binding affinity to His-tagged HHAT (unknown origin) transfected in HEK293FT cells assessed as inhibition constant; assay type: cell-based
[12] = Inhibition of Candida albicans serine palmitoyltransferase
Homo sapiens = species: Homo sapiens; assay: Binding affinity to ZDHHC (unknown origin) assessed as inactivation constant
[13] = biological target: T3, Carnitine O-palmitoyltransferase 1, liver isoform; assay: Binding affinity to rat liver mitochondria CPT1 assessed as inhibition constant incubated for 3 to 6 mins by Liquid scintillation counting method
[14] = biological target: Carnitine O-palmitoyltransferase 2, mitochondrial (Homo sapiens, UniProt P23786); assay: Inhibition of human CPT2
[15] = biological target: T1, Carnitine O-palmitoyltransferase 1, liver isoform; assay: Inhibition of human CPT1

Non-structural protein 4b, sequence (F5B4I0 whole entry, the tested form may be a part): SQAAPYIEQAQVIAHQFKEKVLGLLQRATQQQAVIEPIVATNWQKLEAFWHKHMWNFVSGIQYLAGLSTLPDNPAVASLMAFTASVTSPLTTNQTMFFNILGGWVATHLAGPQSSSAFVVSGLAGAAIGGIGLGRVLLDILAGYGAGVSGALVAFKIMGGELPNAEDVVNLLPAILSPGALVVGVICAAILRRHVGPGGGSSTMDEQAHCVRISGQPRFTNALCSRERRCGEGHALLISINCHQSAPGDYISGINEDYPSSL
Protein-cysteine N-palmitoyltransferase HHAT, sequence (Q5VTY9 whole entry): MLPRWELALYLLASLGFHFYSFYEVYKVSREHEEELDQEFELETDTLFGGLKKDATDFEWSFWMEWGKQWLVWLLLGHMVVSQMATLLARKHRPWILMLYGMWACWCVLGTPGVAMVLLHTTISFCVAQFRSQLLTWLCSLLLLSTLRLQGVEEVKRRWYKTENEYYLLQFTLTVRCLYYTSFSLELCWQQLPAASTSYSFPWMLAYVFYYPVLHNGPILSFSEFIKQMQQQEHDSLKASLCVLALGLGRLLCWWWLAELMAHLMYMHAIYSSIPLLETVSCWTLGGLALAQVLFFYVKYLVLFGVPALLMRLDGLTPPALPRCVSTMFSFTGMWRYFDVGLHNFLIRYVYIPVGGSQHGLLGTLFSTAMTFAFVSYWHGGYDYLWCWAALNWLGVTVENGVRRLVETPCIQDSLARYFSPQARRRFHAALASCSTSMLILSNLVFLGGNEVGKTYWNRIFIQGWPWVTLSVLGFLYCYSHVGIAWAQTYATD
Carnitine O-palmitoyltransferase 2, mitochondrial (Homo sapiens, UniProt P23786), sequence (P23786 whole entry, canonical isoform): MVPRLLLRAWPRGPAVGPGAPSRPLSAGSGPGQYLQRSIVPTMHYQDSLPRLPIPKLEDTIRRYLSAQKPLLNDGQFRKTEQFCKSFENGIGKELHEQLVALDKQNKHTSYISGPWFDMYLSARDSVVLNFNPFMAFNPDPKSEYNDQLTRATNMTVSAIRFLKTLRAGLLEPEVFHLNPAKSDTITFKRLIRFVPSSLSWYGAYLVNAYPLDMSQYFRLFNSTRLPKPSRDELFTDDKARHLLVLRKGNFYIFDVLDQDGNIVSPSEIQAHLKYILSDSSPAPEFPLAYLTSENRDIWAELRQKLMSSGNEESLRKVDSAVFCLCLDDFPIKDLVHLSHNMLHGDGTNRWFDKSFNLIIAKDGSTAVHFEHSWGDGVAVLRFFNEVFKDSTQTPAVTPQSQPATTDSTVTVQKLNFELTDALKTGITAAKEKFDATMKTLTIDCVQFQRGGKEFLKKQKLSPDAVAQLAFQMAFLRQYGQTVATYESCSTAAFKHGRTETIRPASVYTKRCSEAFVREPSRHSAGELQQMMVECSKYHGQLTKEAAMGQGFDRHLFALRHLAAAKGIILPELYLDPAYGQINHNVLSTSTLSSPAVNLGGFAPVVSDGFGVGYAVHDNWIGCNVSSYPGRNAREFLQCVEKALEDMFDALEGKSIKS
Carnitine O-palmitoyltransferase 2, mitochondrial (Rattus norvegicus, UniProt P18886), sequence (P18886 whole entry): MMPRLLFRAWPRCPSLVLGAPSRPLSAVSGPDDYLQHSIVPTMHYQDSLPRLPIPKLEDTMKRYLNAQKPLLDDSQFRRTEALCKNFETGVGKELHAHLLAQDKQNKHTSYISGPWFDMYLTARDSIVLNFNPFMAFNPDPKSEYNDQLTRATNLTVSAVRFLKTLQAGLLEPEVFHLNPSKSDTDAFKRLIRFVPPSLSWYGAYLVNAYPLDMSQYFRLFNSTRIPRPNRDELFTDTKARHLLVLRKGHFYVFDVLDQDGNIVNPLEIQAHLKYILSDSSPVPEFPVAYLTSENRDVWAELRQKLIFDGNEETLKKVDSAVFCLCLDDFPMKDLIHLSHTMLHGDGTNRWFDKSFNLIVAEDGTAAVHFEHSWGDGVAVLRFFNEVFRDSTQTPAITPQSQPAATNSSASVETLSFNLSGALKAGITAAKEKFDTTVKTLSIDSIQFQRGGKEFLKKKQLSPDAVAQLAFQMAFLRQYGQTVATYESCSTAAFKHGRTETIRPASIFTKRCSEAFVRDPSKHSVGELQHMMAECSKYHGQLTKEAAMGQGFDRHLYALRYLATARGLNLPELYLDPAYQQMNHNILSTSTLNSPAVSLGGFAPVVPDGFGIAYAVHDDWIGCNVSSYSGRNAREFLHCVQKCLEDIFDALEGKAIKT
Transcriptional enhancer factor TEF-1, sequence (P28347 whole entry, the tested form may be a part): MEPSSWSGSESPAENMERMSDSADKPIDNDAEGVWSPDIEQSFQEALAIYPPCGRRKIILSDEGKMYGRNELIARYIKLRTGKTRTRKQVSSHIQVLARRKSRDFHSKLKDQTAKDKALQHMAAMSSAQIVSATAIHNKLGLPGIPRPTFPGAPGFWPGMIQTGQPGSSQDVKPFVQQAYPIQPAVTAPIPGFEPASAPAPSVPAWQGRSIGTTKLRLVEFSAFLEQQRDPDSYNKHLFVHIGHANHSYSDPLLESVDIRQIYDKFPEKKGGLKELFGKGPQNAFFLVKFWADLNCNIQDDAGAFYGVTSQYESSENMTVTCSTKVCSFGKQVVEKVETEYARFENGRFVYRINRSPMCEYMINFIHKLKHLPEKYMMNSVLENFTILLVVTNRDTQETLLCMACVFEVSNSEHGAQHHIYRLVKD

Structure (SMILES): CNS(=O)(=O)c1ccc(Nc2ccc(C(F)(F)F)cc2)c(-c2cn(C)cn2)c1
half-life [1]: 13.2 h

Structure (SMILES): C=CC(=O)N1CCCN(CCCOCc2ccccc2)C1
IC50 [4]: 0.16 µM

Structure (SMILES): COc1ccc(Cl)cc1S(=O)(=O)N1CCc2ccc(C(=O)Nc3ccc(C(=O)O)cc3)cc21
IC50 [7]: 1.09 µM
IC50 [8]: 0.021 µM

Structure (SMILES): C=CC(=O)N1C[C@@H](n2cc(C3CCOCC3)nn2)[C@H](OCc2ccc(C(F)(F)F)cc2)C1
IC50 [9]: 0.045 µM

Structure (SMILES): C1CCC(C(CC2CCCCN2)C2CCCCC2)CC1 (centres undefined) [PERHEXILINE]
IC50 [10]: 77 µM

Structure (SMILES): COc1ccc(CN2CCN(CCCSc3cc(C(C)(C)C)c(O)c(C(C)(C)C)c3)CC2)c(OC)c1OC
IC50 [6]: 16.8 µM

Structure (SMILES): N[C@H]1CONC1=O
Kinact (Homo sapiens): 0.83 M⁻¹ s⁻¹

Structure (SMILES): COc1cccc2c1C(=O)c1c(O)c3c(c(O)c1C2=O)C[C@@](O)(C(=O)CO)C[C@@H]3O[C@H]1C[C@H](N)[C@H](O)[C@H](C)O1 [DOXORUBICIN HYDROCHLORIDE]
IC50 [14]: > 100 µM
IC50 [15]: 250 µM

Further lines, with some results ahead:

Ki [2]: 1.7 µM
Structure (SMILES): C/C(=C\CC12OC(C)(C)C3CC(C=C4C(=O)c5c(O)cccc5OC431)C2=O)COC(=O)c1cccnc1 (centres undefined)
IC50 (CCF-STTG1): 2.29 µM

IC50 [3]: 0.0189 µM
Structure (SMILES): CC#CCOc1ccc(C[C@H](NC(=O)[C@@H](/C=C/CCCCCCC(=O)CCCCCCC)[C@@](O)(CC(C)=O)C(=O)O)C(=O)O)cc1

MIC (Plasmodium falciparum): 0.78 µg/mL
Structure (SMILES): CCCCCCCCCCCCOC(=O)[C@@H](N)CC(C)C

IC50 [5]: 0.13 µM
IC50 [6]: 5.44 µM
Structure (SMILES): CCCCCCOc1cccc(OCCCCNC(=O)N[C@H](CC(=O)[O-])C[N+](C)(C)C)c1

Ki [11]: 7.4 µM
Structure (SMILES): CCC(C)CNCC(=O)N1CCc2sccc2C1COc1cccc(C)c1 (centres undefined)

IC50 [12]: 0.022 µM
Structure (SMILES): CCCCCCCC(=O)CCCCCC/C=C/[C@H](C(=O)N[C@@H](Cc1ccc(O)cc1)C(=O)O)[C@@](O)(CC(=O)O)C(=O)O

Ki [13]: 4.2 µM
Structure (SMILES): CCCCCCCCCCCCCCCC1(O)C[C@H](CC(=O)[O-])C[N+](C)(C)C1 (single isomer, unassigned)
